In patent publication US8853188B2, “Compositions and methods for cancer treatment” (Women and Infants Hospital of RI, Inc., priority 2005, dated 2014):
Entries after “also recorded” stand apart in the source; their conditions may differ.

Assays:
cytochrome-c = test: Cyt-C immunoblot of cytosol of NB cells; format: cell-based; conditions: SMS-KCNR, SH-SY5Y and IMR-32 cells
Protocol: FIG. 10C. Cyt-C immunoblot of cytosol of NB cells: A and D-SMS-KCNR; B and E-5H-SY5Y and C and F-IMR-32.
(§1) In depth studies were carried out to assess the activation of intrinsic and extrinsic apoptotic pathways. […] Caspase-9 was activated by B3CD in these cells (FIG. 10B), indicating an active role of intrinsic pathway of apoptosis. […] However, caspase-8 was undetectable in IMR-32 and SH-SY5Y cells.

IMR-32 cells = test: Apoptosis in apoptosis-resistant NB cells; format: cell-based; conditions: IMR-32; data not shown
Protocol: (§2) NB is characterized with defective apoptotic pathways. […] Neuronal (N-) type SH-SY5Y and IMR-32 cells, and stromal (S-) type SMS-KCNR cells which are resistant to apoptosis were used. […] A defect in caspase-8 or its activation causes resistance to apoptosis and in turn to chemotherapy in all these cells. On the other hand, these cells carry intact intrinsic apoptotic pathway, and executioner caspase-3 is activated by caspase-9 route.
as §1
(§3) Although caspase-8 was detected in SMS-KCNR cells, it was not activated by B3CD (FIG. 10D). Actin immunoblotting was used as loading control in the above studies (data not shown).

SMS-KCNR cells [1] = test: Apoptosis in apoptosis-resistant NB cells; format: cell-based; conditions: data not shown
Protocol: as §2, §1, §3

SMS-KCNR cells [2] = test: Proliferation of apoptosis-resistant NB cells; format: cell-based; conditions: data not shown
Protocol: as §2, §1

[3] = test system: Human umbilical vein endothelial cells (HUVEC); test: Endothelial cell viability / proliferation assay; format: cell-based; conditions: 25-400 nM, 24 hours
Protocol: Human umbilical vein endothelial cells (HUVEC) were treated with B3CD (25, 50, 100, 200 and 400 nM) for 24 hours and proliferation was measured as before. Vehicle and CD treated controls were used in each experiment. […] Following the treatment with B3CD, the endothelial cells were rounded up and floated, showing indications of apoptosis similar to NB.

keratinocytes = test: Apoptosis by DNA fragmentation, FIG. 4A; format: cell-based
Protocol: (§4) Materials and methods. Proliferation was measured by MTS and BrdU incorporation assays. Apoptosis was assessed by DNA fragmentation, Cell Death Detection ELISA and caspase-3-assays. Effect of B3CD on TrkB signaling by BDNF was assessed by Western Blot analysis of AKT and ERK phosphorylation. The effect on angiogenesis was determined by chick chorioallantoic membrane (CAM) assay and aortic ring assay.
(§5) B3CD was tested on the panel of cell described above. […] Such cell-type specificity is not uncommon. […] However, keratinocytes were not affected by B3CD (FIG. 4A; Lane-2). In addition, caspase-3 activity was increased by B3CD (FIG. 4B). These studies indicated an underlying apoptotic mechanism in the anticancer activity of B3CD.

prostate cancer cells [4] = test: Apoptosis by DNA fragmentation, FIG. 4A; format: cell-based
Protocol: as §4, §5

ovarian cancer cells [5] = test: Apoptosis by DNA fragmentation, FIG. 4A; format: cell-based
Protocol: as §4, §5

smooth muscle cells = test: Proliferation (MTS, BrdU), FIG. 3; format: cell-based
Protocol: as §4, §5

neuroblastic cells = test: Proliferation (MTS, BrdU), FIG. 3; format: cell-based
Protocol: as §4, §5

pancreatic cells = test: Proliferation (MTS, BrdU), FIG. 3; format: cell-based
Protocol: as §4, §5

prostate cancer cells [6] = test: Proliferation (MTS, BrdU), FIG. 3; format: cell-based
Protocol: as §4, §5

osteosarcoma cells = test: Proliferation (MTS, BrdU), FIG. 3; format: cell-based
Protocol: as §4, §5

endothelial cells [7] = test: Proliferation (MTS, BrdU), FIG. 3; format: cell-based
Protocol: as §4, §5

ovarian cancer cells [8] = test: Proliferation (MTS, BrdU), FIG. 3; format: cell-based
Protocol: as §4, §5

skin cells = test: Proliferation (MTS, BrdU), FIG. 3; format: cell-based
Protocol: as §4, §5

macrophage cells = test: Proliferation (MTS, BrdU), FIG. 3; format: cell-based
Protocol: as §4, §5

breast cells = test: Proliferation (MTS, BrdU), FIG. 3; format: cell-based
Protocol: as §4, §5

Caspase-9 = Caspase-9 immunoblot in NB cells; format: cell-based; conditions: SMS-KCNR, IMR-32 and SH-SY5Y cells
Protocol: FIG. 10B. Caspase-9 immunoblot.
as §1

[9] = mouse, in vivo
Protocol: FIG. 6A. In vivo studies to determine apparent systemic toxicity of B3CD. Mice were injected with the specified amounts of B3CD (i.p.) once in 48 hr for 28 days. The animals were weighed to assess the effect of B3CD on change in body weight.
FIG. 6B. At the end of the experiment (6A) mice were sacrificed and blood collected to estimate serum calcium as a measure of hypercalcemia.
A major concern was the potential systemic toxicity of B3CD due to hypercalcemia since B3CD (FIG. 1) is a derivative of calcidiol, which is a family member of calcitriol (Schmidt-Gayk H, Bouillon R, Roth H J. Measurement of vitamin D and its metabolites (calcidiol and calcitriol) and their clinical significance. Scand J Clin Lab Invest Suppl. 1997; 227:35-45). Therapeutic doses of calcitriol lead to increased serum calcium and consequently death; therefore, hypercalcemia is a hallmark of lethality of pharmacologic doses of calcitriol. In the event that further testing in vivo might show lethal calcemic side effects, preliminary studies were carried out to determine any overt toxic effects in a murine model.
The effect of B3CD on serum calcium levels in SCID mice was tested. These studies were carried out in Boston University School of Medicine, Boston, Mass., in accordance with institutional guidelines. B3CD, calcidiol and calcitriol were formulated in 80% polyethylene glycol in PBS and were administered as i.p. injections once in 48 hours for 28 days. Animals were euthanized, sera collected and analyzed immediately for serum calcium in the hospital core facility. The animals were divided into 4 groups of 5 animals each.

AKT = test: Western Blot analysis of AKT phosphorylation; format: cell-based; conditions: neuroblastoma cells
Protocol: as §4
Neuroblastoma cells were treated with B3CD for 48 hrs. […] AT 0.5 nM, B3CD inhibited >50% (p<0.035) and >90% at […] (p<0.01) viability and proliferation respectively.

endothelial cells [10] = test: Apoptosis in endothelial cells (DNA fragmentation); format: cell-based
Excerpt: Apoptosis in EC by B3CD was studied by DNA fragmentation and caspase-3 activation analyses as before.

caspase-3 = test: Caspase-3 immunoblot in NB cells; format: cell-based; conditions: SMS-KCNR, IMR-32 and SH-SY5Y cells
Protocol: FIG. 10A. Caspase-3 immunoblot.
as §1

C=C1CC[C@H](OC(=O)CBr)C/C1=C/C=C1\CCC[C@]2(C)[C@@H]([C@H](C)CCCC(C)(C)O)CC[C@@H]12 [B3CD, bromoacetic acid 3-{2-[1-(5-hydroxy-1,5-dimethyl-hexyl)-7a-methyl-octahydro-inden-4-ylidene]-ethylidene}-4-methylene-cyclohexyl ester]
cytochrome-c release into cytosol (cytochrome-c): released into cytosol | induction of apoptosis (IMR-32 cells): induced apoptosis | induction of apoptosis (SMS-KCNR cells [1]): induced apoptosis | inhibition of proliferation (SMS-KCNR cells [2]): dose dependent inhibition of proliferation | proliferation of EC [3]: strongly inhibited the proliferation | viability of EC [3]: dose dependent decrease in viability | DNA laddering (apoptosis) (keratinocytes): not affected | DNA laddering (apoptosis) (prostate cancer cells [4]): distinct DNA laddering characteristic of apoptosis | DNA laddering (apoptosis) (ovarian cancer cells [5]): distinct DNA laddering characteristic of apoptosis | effect on proliferation (smooth muscle cells): did not show an effect on proliferation | antiproliferative and cytotoxic effects (neuroblastic cells): potent antiproliferative and cytotoxic effects | cell viability (neuroblastic cells; by 24 hours): less than 15 % of the untreated control cells | effect on proliferation (pancreatic cells): did not show an effect on proliferation | antiproliferative and cytotoxic effects (prostate cancer cells [6]): potent antiproliferative and cytotoxic effects | effect on proliferation (osteosarcoma cells): did not show an effect on proliferation | antiproliferative and cytotoxic effects (endothelial cells [7]): potent antiproliferative and cytotoxic effects; also recorded: inhibit proliferation | antiproliferative and cytotoxic effects (ovarian cancer cells [8]): potent antiproliferative and cytotoxic effects | effect on proliferation (skin cells): did not show an effect on proliferation | effect on proliferation (macrophage cells): did not show an effect on proliferation | effect on proliferation (breast cells): did not show an effect on proliferation | caspase-9 activation (immunoblot) (Caspase-9): activated | clinical signs (lethargy, tolerance to handling, mobility) [9]: showed no such signs | toxicity in murine models [9]: no toxicity | phosphorylation of AKT (AKT): inhibited phosphorylation | DNA fragmentation (endothelial cells [10]): DNA fragmentation characteristic of apoptosis | induction of apoptosis (endothelial cells [10]; data not shown): induced apoptosis | caspase-3 activation (immunoblot) (caspase-3): activated
